From patent US11180510B2, “Xanthine derivatives and uses thereof as inhibitors of bromodomains of BET proteins” (Centre national de la recherche scientifique, priority 2017, dated 2021)
Read-outs that look alike come from different tables or passages of the source.

Key:
BRD4(BD1) [1] = target: T1, BRD4(BD1) (Homo sapiens, UniProt O60885); test: HTRF assay, BRD4(BD1)/histone peptide interaction; assay type: binding; design: made in house; conditions: for IC50: HTRF; for Ratio 4-1 vs 4-2: selectivity Brd4(BD1) vs Brd4(BD2), HTRF IC50
Protocol: (§1) HTRF assays were performed in white 384 Well Small Volume™ HiBase Polystyrene Microplates (Greiner) with a total working volume of 20 μL. Compounds were dispensed, with 100 nL per well (0.5% final DMSO), from a concentration stock of 10 mM in 100% DMSO and with serial DMSO dilutions, using an Echo® 550 robot from the Access Labcyte platform (Labcyte) and based on the transfer of liquid by acoustic wave. Then, 19.5 μL of buffer is added, using a Multidrop Combi (Thermo Fisher Scientific). […] All HTRF reagents (donor and acceptor) were purchased from CisBio Bioassays and reconstituted according to the supplier protocols. The peptide was purchased from Genic Bio Synthetic. The BRD4(1) protein was produced and purified in the laboratory.
(§2) Percentage of inhibition was calculated using the following equation: % inhibition=[(compound signal)−(min signal)]/[(max signal)−(min signal)]*100, where ‘max signal’ is the signal ratio with the compound vehicle alone (DMSO) and ‘min signal’ the signal ratio without peptide.
(§3) Selectivity profiles of bromodomain inhibitors were performed as described in HTRF screen section. […] HTRF detection reagents (EPIgeneous™ Binding Domain kits) were purchased from Cisbio Bioassays and used according to supplier's protocol. GST tagged bromodomain proteins were purchased from BPS Bioscience and histone peptide from Genic Bio Synthetic.

Molm14 cells = test: Cell Titer-Glo cell viability assay, Molm14; assay type: cell-based; conditions: Homo sapiens, MOLM-14, 72 h, mean of three experiments, NA = IC50 > maximal concentration used
Protocol: (§4) The human leukemia cell line Jurkat (ATCC® TIB-152) and Molm14 was maintained in RPMI-1640 medium or MEMα, respectively and supplemented both with 10% FBS at 37° C. and 5% CO2.
(§5) In antiproliferative assays, compounds were assayed for their growth inhibiting activity towards the described cancer cell lines using the Cell Titer-Glo Luminescent Cell Viability Assay as described by the manufacturer (Promega Corporation). Briefly, 10.000 cells were plated onto 96 well-plates (white with clear bottom (3610, Corning Costar)) in 90 μL media per well immediately before assay. 10 μL of compounds were added at different concentrations (ranging from 50 μM to 6 nM) to each well and cell cultures were incubated 37° C. during 72 h. Vehicle (DMSO) was used as negative control, JQ1 (a pan-BET inhibitor) was used as positive control and all compounds were tested in constant percentage of DMSO (1%). After addition of 50 μL Cell Titer-GLO, shaking 2 minutes and incubating at room temperature 10 minutes, the Luminescence was measured using a Centro luminometer LB960 (Berthold). Dose-response curves were generated and effective dose 50 values (EC50) were calculated using non-linear regression analysis (Graph Pad Prism).

Brdt(BD1) = target: T2, Brdt(BD1) (Homo sapiens, UniProt Q58F21); test: HTRF BET selectivity profile, Brdt(BD1); assay type: binding
T2 construct: GST tagged bromodomain proteins were purchased from BPS Bioscience; purchased BPS Bioscience
Protocol: (§6) HTRF assays were performed in white 384 Well Small Volume™ HiBase Polystyrene Microplates (Greiner) with a total working volume of 20 μL. Compounds were dispensed, with 100 nL per well (0.5% final DMSO), from a concentration stock of 10 mM in 100% DMSO and with serial DMSO dilutions, using an Echo® 550 robot from the Access Labcyte platform (Labcyte) and based on the transfer of liquid by acoustic wave. Then, 19.5 μL of buffer is added, using a Multidrop Combi (Thermo Fisher Scientific). Finally, for each assay, 200 nL of master mix (protein+donor+acceptor) and 200 nL of peptide Is added in the assay wells according to the final concentration and buffer described in Table 3, using the Echo® 550 robot (Labcyte). The IC50 measurements were performed in triplicates (Table 2 and 3). All HTRF reagents (donor and acceptor) were purchased from CisBio Bioassays and reconstituted according to the supplier protocols. The peptide was purchased from Genic Bio Synthetic. The BRD4(1) protein was produced and purified in the laboratory. HTRF signals were measured, after a final incubation (3 h or 6 h or overnight at room temperature or 4° C., according to the bromodomain), using a PHERAstar FS (BMG Labtech) with an excitation filter at 337 nm and fluorescence wavelength measurement at 620 and 665 nm, an integration delay of 60 μs and an integration time of 500 μs. Results were analyzed with a two-wavelengths signal ratio: [intensity (665 nm)/intensity (620 nm)]*104.
as §2, §3

Brd4(BD2) = target: T3, Brd4(BD2) (Homo sapiens, UniProt O60885); test: HTRF BET selectivity profile, Brd4(BD2); assay type: binding
T3 construct: GST tagged bromodomain proteins were purchased from BPS Bioscience; purchased BPS Bioscience
Protocol: as §6, §2, §3

Brd3(BD2) = target: T4, Brd3(BD2) (Homo sapiens, UniProt Q15059); test: HTRF BET selectivity profile, Brd3(BD2); assay type: binding
T4 construct: GST tagged bromodomain proteins were purchased from BPS Bioscience; purchased BPS Bioscience
T4 sequence (Q15059 306-415 limits assumed): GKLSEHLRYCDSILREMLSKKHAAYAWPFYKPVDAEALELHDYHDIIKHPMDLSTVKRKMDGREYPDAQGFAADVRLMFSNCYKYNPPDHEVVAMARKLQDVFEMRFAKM
Protocol: as §6, §2, §3

Jurkat cells = test: Cell Titer-Glo cell viability assay, Jurkat; assay type: cell-based; conditions: Homo sapiens, 72 h, mean of three experiments, NA = IC50 > maximal concentration used
Protocol: as §4, §5

Brd3(BD1) = Brd3(BD1) (Homo sapiens, UniProt Q15059); test: HTRF BET selectivity profile, Brd3(BD1); assay type: binding; design: GST tagged bromodomain proteins were purchased from BPS Bioscience; purchased BPS Bioscience; conditions: for Ratio 3-1 vs 3-2: selectivity Brd3(BD1) vs Brd3(BD2), HTRF IC50
Brd3(BD1), sequence (Q15059 34-140 limits assumed): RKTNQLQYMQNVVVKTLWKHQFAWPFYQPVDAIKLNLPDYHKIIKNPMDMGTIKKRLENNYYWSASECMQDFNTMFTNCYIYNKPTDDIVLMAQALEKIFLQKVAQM
Protocol: as §1, §2, §3

Brd2(BD1) = target: T5, Brd2(BD1) (Homo sapiens, UniProt P25440); test: HTRF BET selectivity profile, Brd2(BD1); assay type: binding; conditions: for IC50: read-out: Brd2(BD1) IC50; for Ratio 2-1 vs 2-2: selectivity Brd2(BD1) vs Brd2(BD2), HTRF IC50
T5 construct: GST tagged bromodomain proteins were purchased from BPS Bioscience; purchased BPS Bioscience
T5 sequence (P25440 74-180 limits assumed): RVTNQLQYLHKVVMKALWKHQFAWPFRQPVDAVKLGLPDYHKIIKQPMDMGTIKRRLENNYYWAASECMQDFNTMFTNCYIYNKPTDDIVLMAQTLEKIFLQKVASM
Protocol: as §1, §2, §3

Brd2(BD2) = target: T6, Brd2(BD2) (Homo sapiens, UniProt P25440); test: HTRF BET selectivity profile, Brd2(BD2); assay type: binding; conditions: read-out: Brd2(BD2) IC50
T6 construct: GST tagged bromodomain proteins were purchased from BPS Bioscience; purchased BPS Bioscience
T6 sequence (P25440 344-453 limits assumed): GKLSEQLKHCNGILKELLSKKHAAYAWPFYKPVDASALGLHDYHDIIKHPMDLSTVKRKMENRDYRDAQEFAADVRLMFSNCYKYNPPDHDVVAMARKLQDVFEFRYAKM
Protocol: as §1, §2, §3

BRD4(BD1) [2] = target: T1, BRD4(BD1); test: Isothermal Titration Calorimetry; assay type: binding; conditions: ITC; read-out: Binding affinity (Kd) to BRD4(1) by Isothermal Titration Calorimetry
Protocol: FIG. 1. Isothermal Titration Calorimetry (ITC) of 43c. Thermogram (top) and non-linear least squares fit model of the integrated data (bottom) at 15° C. of Brd4 (BD1) […] as a function of the molar ratio of ligand to the protein.
ITC was used to evaluate the thermodynamics parameters of the binding between BRD4 (BD1) and the selected compounds. Titrations were carried out on a MicroCal ITC200 microcalorimeter (GE Healthcare, Piscataway, N.J.). Each experiment was designed using a titrant concentration (protein in the syringe generally between 100 and 400 μM) set 10 to 15 times the analyte concentration (compound in the cell generally between 10 and 40 μM) and using 13 injections at 25° C. A first small injection (generally 0.2 μL) was included in the titration protocol in order to remove air bubbles trapped in the syringe prior titration. Raw data were scaled after setting the zero to the titration saturation heat value. Integrated raw ITC data were fitted to a one site non-linear least squares fit model using the MicroCal Origin plugin as implemented in Origin 7 (Origin Lab). Finally, ΔG and TΔS values were calculated from the fitted ΔH and KA values using the equations ΔG=−R.T.inKA and ΔG=ΔH−TΔS.

[3] = triplicates, NA = IC50 > maximal concentration of compound used
[4] = mean of three experiments, NA = IC50 > 50 μM, read-out: Brd4(8D1) IC50

SMILES | IC50 (BRD4(BD1) [1]; [3]) [µM] | IC50 (Molm14 cells) [µM] | IC50 (BRD4(BD1) [1]; [4]) [µM] | Ratio 4-1 vs 4-2 (BRD4(BD1) [1]) | IC50 (Brdt(BD1)) [µM] | IC50 (Brd4(BD2)) [µM] | IC50 (Brd3(BD2)) [µM] | IC50 (Jurkat cells) [µM] | IC50 (Brd3(BD1)) [µM] | Ratio 3-1 vs 3-2 (Brd3(BD1)) | IC50 (Brd2(BD1)) [µM] | Ratio 2-1 vs 2-2 (Brd2(BD1)) | IC50 (Brd2(BD2)) [µM] | Kd (BRD4(BD1) [2]) [µM]
CCn1cnc2c1c(=O)[nH]c(=O)n2Cc1ccc(CNS(=O)(=O)c2ccc(Oc3cncc(C)n3)cc2)cc1 [Compound 42c] | 0.75 | 12.2 |  |  |  |  |  |  |  |  |  |  |  | 
CCn1cnc2c1c(=O)[nH]c(=O)n2Cc1ccc(CNS(=O)(=O)c2ccc(-c3cc(C)n[nH]3)s2)cc1 [Compound 25a] | 0.284 | 9.9 | 0.284 | 14 | 3.47 | 4.05 | 3.17 | 13.5 | 0.507 | 6 | 2.1 | 2 | 3.2 | 
O=C1CCCc2cc(S(=O)(=O)NCC3CCC(C(=O)NCCc4cccs4)CC3)ccc2N1 (single isomer, unassigned) [Compound 5b, 4-((2-oxo-2,3,4,5-tetrahydro-1H-benzo[b]azepine-7-sulfonamido)methyl)-N-(2-(thiophen-2-yl)ethyl)cyclohexanecarboxamide] | 3.8 |  | 3.83 | >13 | 14.6 |  |  | 9.3 | 2.38 | >21 | 6.35 | >8 |  | 2.2
CCn1cnc2c1c(=O)[nH]c(=O)n2Cc1ccc(CNS(=O)(=O)c2ccc(C(=O)N3CCOCC3)cc2)cc1 [Compound 44b] | 0.123 | 23.7 | 0.123 | 34 | 0.397 | 4.24 | 3.32 |  | 0.23 | 14 | 0.352 | 6 | 1.96 | 0.17
CCn1cnc2c1c(=O)[nH]c(=O)n2Cc1ccc(CNS(=O)(=O)c2ccn(-c3ccccc3)n2)cc1 [Compound 24b] | 0.846 | 10.2 | 0.846 | 7 | 6.26 | 5.85 | 12 | 14.2 | 1 | 12 | 3.33 | 2 | 6.05 | 
CCn1cnc2c1c(=O)[nH]c(=O)n2Cc1ccc(CNS(=O)(=O)c2ccc3scnc3c2)cc1 [Compound 25c] | 1.6 | 14.8 | 1.59 | 13 | 14 | 21.2 | 17.4 | 6.1 | 4.77 | 4 | 4.18 | 7 | 23.5 | 
CCn1cnc2c1c(=O)[nH]c(=O)n2Cc1ccc(CNS(=O)(=O)c2cccc(-c3ccccc3)c2)cc1 [Compound 29c] | 0.814 | 8.9 | 0.814 | 15 | 7.44 | 12.2 | 18.9 | 6.9 | 1.6 | 12 | 5.47 | 3 | 14.7 | 1.1
CCn1cnc2c1c(=O)[nH]c(=O)n2Cc1cc(OC)c(CNS(=O)(=O)c2ccc3c(c2)CCCC(=O)N3)cc1OC [Compound 32a] | 13 | 30.2 |  |  |  |  |  | 23.3 |  |  |  |  |  | 
CCn1cnc2c1c(=O)[nH]c(=O)n2Cc1ccc(CNS(=O)(=O)c2ccc(Oc3ccc(C(F)(F)F)cc3)cc2)cc1 [Compound 44c] | 0.522 | 9.3 |  |  |  |  |  |  |  |  |  |  |  | 
CCCCc1c(C)nc2nc(SCc3nc4c(c(=O)[nH]c(=O)n4Cc4ccc(CNS(=O)(=O)c5ccc6c(c5)CCCC(=O)N6)cc4)n3CC)nn2c1C [Compound 32c, N-(4-((8-(((6-butyl-5,7-dimethyl-[1,2,4]triazolo[1,5-a]pyrimidin-2-yl)thio)methyl)-7-ethyl-2,6-dioxo-1,2,6,7-tetrahydro-3H-purin-3-yl)methyl)benzyl)-2-oxo-2,3,4,5-tetrahydro-1H-benzo[b]azepine-7-sulfonamide] | 1.1 |  | 1.08 | 9 | 18.9 | 9.15 | 4.16 | 32.5 | 4.43 | 1 | 4.67 | 0.7 | 3.36 | 2.1
CCn1cnc2c1c(=O)[nH]c(=O)n2Cc1ccc(CNS(=O)(=O)c2cc3ccccc3s2)cc1 [Compound 25b] | 0.779 | 11.1 | 0.779 | 16 | 7.44 | 12.8 | 12.4 | 5.2 | 1.54 | 8 | 1.38 | 8 | 10.5 | 
